Here are results for one compound from article PMC9227536, “Prediction of Pharmacokinetics of IDP-73152 in Humans Using Physiologically-Based Pharmacokinetics” (Pharmaceutics, 2022).

Data set [1] is described as follows: Metabolic stability in liver microsomes, rat. The class given is in vitro ADME. As for the experimental part: In this study, the metabolic stability of IDP-73152 in microsomes from mice, rats, dogs, and humans, as well as rat hepatocytes, was determined. For a microsomal incubation study, the incubation mixtures, containing mouse, rat, dog, or human liver microsomes at a protein concentration of 0.5 mg/mL, 3.3 mM MgCl2, and 1.3 mM NADPH, in a 100 mM potassium phosphate buffer (pH 7.4), were preincubated for 3 min at 37 °C. In parallel, a control incubation mixture (i.e., identical composition to that of the incubation mixture without NADPH) was also prepared for comparison. The reaction was initiated by the addition of a 10 × solution of IDP-73152 (final concentration in mixtures of 1 μM) to the incubation mixtures or the control incubation mixtures. The mixtures were incubated in a shaking water bath (37 °C, 90 rpm). Aliquots (30 μL) were collected at 0, 15, 30, and 45 min from the mixture and the reaction was terminated by the addition of a 4-fold volume of ice-cold acetonitrile to the sample. The mixture was then vortexed for 5 min and centrifuged for 10 min at 10,000× g. The supernatant was collected and stored at -80 °C until the analysis. For the hepatocyte incubation study, rat hepatocytes were freshly prepared using the two-step collagenase perfusion method with slight modifications. After the isolation, cell viability during the preparation process was first determined by a trypan blue exclusion assay prior to the stability study. The preparation was considered adequate for subsequent studies if the viability was greater than 80%. When appropriate, the hepatocytes were resuspended in Williams' media E containing 10% fetal bovine serum, 1% penicillin-streptomycin, and 0.01% insulin-transferrin-selenium (i.e., 10 mg/mL insulin, 5.5 mg/mL transferrin, and 5 mg/mL selenium) at pH 7.4. The reaction was carried out with the hepatocyte suspension prepared at 1 × 10^6 cells/mL (0.5 mL) and initiated by the addition of equal volume of IDP-73152 solution (i.e., final concentration of the compound at 1 μM in 0.5 × 10^6 cells/mL of hepatocytes) to the hepatocyte suspension. […] Assuming first-order disappearance kinetics, the slope k of the logarithmically transformed IDP-73152 concentration in the sample versus time plot was determined by the linear regression analysis of the data. The total intrinsic clearance (CLint,mic, μL/min/mg protein for microsomal incubation study and CLint,hep, μL/min/million cells for hepatocytes incubation study) was then calculated using the following equations:(4) CLint, mic=k×Volume of incubation medium (μL)/Protein in incubation medium (mg) (5) CLint,hep=k×Volume of incubation (μL)/Number of cells in incubation (×10^6) The unbound intrinsic clearance, with respect to the whole liver ([…]), was then estimated for the two cases. […]
On the technique in general: Liver microsomes are vesicles of endoplasmic reticulum, rich in cytochrome P450 enzymes.

Data set [2] relates to penicillin-resistant Streptococcus pneumonia. The following applies: infected mice, twice-a-day dosing; cited from earlier work.

On to `CC(C)(C)[C@H](NC(=O)[C@H](CC1CCCC1)CN(O)C=O)C(=O)N1CCC(NCc2cc(F)c(F)cc2F)CC1` [IDP-73152], for which, in data set [1] (rat, liver microsomes, pH 7.4, rats, read-out: CLh calculated from the CLint,mic (converted)), the CLhep predicted at 1 μM is 28.2 mL/min/kg. Also, the microsomal CLint at 1 μM in data set [1] (rat, pH 7.4, rats liver microsomes 0.5 mg/mL, 1 μM, read-out: CLint,mic) was determined as 72 ± 2.6 µL/min/mg. The “hepatic ER (extraction ratio)” value in data set [1] (rats, from microsomal clearance, well-stirred model) amounted to 0.222 ± 0.006. Also, in data set [1] (rats, scaled up to the whole liver from microsomes), the “CLu,int,H” value was 7.46 ± 0.27 L/h. Further, the “ED50 (oral dose at which the survival rate was 50%)” value in data set [2] is listed as 3.0 mg/kg.
